In publication PMC7294809, “Discovery of an Allosteric Binding Site in Kinetoplastid Methionyl-tRNA Synthetase” (ACS Infectious Diseases, 2020):
Values after ≈ are worked out from the molar mass of the structure shown. Where two headings read alike, the source gives them in different places.

What was measured:
[1] = biological target: LdMetRS (Leishmania donovani, UniProt A0A3Q8IBX2); test: LdMetRS BIOMOL Green biochemical assay, 10-point dose response; settings: 50 μM methionine, 100 μM ATP; for IC50: read-out: LdMetRS pIC50 (converted)
[2] = CHI LogD measurement; format: physicochemical
Description: CHI LogD measurements were performed as described elsewhere.[29] cLogP measurements were calculated using StarDrop (Optibrium).

[3] = biological target: TcMetRS (Trypanosoma cruzi, UniProt Q4D6H2); test: TcMetRS BIOMOL Green biochemical assay, 10-point dose response; settings: for IC50 / Emax: 50 μM methionine, 100 μM ATP; for IC50: 80 nM TcMetRS, read-out: TcMetRS pIC50 (converted); for Emax: read-out: TcMetRS Maximum % Inhibition; for TcMetRS Maximum % Inhibition Plateau: Table 3, plateau of dose-response curve
[4] = Aqueous solubility, filtration-based method; format: physicochemical; settings: phosphate-buffered saline pH 7.4, 24 h, 25 °C; for solubility at 24 h: aqueous buffer, kinetic from dmso stock
Description: Solubility was assessed using a filtration-based method. Test compounds were dissolved in DMSO to give 10 mM solutions. Five microliters of the 10 mM solution was added to 195 μL of phosphate-buffered saline at pH 7.4 and mixed for 24 h (rotary mixing, 900 rpm, 25 °C) excluding light. After mixing, the samples were filtered to remove any undissolved material using a Millipore Multiscreen HTS filter. The filtrate was analyzed for dissolved drug compounds using UHPLC.

[5] = 50 nM LdMetRS, pIC50 = −log IC50 (M)
[6] = plateau of dose-response curve, read-out: LdMetRS Maximum % Inhibition Plateau
[7] = chromatography (chromatographic hydrophobicity index)
[8] = Table 2, read-out: LdMetRS Maximum % Inhibition
[9] = chromatographic hydrophobicity index

LdMetRS, sequence (A0A3Q8IBX2 entry or part of it): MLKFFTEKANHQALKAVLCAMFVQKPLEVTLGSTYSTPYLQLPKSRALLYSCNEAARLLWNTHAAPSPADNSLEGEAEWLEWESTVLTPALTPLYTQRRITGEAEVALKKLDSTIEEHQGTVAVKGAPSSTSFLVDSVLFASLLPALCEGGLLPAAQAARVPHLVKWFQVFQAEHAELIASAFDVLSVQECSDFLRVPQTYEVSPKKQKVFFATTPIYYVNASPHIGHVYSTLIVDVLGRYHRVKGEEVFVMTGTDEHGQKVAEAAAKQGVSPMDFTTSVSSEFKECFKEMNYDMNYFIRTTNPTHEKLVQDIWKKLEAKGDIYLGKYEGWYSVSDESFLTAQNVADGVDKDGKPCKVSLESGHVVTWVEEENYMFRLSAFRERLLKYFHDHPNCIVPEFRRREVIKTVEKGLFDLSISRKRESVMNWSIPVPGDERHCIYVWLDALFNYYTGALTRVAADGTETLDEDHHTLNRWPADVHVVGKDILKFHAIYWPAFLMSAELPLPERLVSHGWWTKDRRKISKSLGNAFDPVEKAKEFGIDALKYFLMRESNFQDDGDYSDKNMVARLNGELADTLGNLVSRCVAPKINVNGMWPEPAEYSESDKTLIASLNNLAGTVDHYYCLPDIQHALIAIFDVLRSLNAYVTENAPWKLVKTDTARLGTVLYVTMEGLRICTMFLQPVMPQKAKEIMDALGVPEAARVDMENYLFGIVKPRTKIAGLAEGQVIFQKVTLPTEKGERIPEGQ
TcMetRS, sequence (Q4D6H2 entry or part of it): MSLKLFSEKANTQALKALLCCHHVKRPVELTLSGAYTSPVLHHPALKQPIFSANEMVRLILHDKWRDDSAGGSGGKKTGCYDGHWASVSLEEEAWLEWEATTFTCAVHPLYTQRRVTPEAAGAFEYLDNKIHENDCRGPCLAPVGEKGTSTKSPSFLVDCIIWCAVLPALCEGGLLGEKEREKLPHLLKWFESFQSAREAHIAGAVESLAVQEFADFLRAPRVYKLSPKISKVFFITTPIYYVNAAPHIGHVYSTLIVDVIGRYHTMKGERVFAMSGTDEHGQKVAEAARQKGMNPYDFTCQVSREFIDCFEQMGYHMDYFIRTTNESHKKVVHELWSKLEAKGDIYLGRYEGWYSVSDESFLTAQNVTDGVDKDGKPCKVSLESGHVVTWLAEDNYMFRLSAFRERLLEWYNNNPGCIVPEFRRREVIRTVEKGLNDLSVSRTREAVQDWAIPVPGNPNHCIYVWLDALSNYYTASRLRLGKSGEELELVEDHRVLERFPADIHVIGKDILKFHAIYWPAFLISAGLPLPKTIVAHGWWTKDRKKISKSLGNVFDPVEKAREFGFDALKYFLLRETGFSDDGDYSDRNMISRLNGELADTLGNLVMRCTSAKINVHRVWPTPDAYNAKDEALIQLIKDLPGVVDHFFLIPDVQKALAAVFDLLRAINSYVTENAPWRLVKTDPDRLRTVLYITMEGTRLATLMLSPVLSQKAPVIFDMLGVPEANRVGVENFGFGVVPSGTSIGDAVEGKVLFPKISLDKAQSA

Structure (SMILES) | IC50 [1, 5] [M] | Emax [1, 6] [%] | chromatographic logD [2, 7] | Emax [1, 8] [%] | IC50 [3] [µM] | Emax [3] [%] | chromatographic logD [2, 9] | solubility at 24 h [4] [µM] | LdMetRS pIC50 [1, 5] | TcMetRS Maximum % Inhibition Plateau [3] [%] | Aqueous Solubility [4] | LdMetRS Maximum % Inhibition Plateau ([1]; plateau of dose-response curve)
Cn1ncc2c(NCCO)nc(Nc3ccc(Cl)cc3)nc21 [Compound 1] | 7.94e-06 | 89.5 | – | – | – | – | – | – | – | – | – | –
Cn1ncc2c(NCCO)nc(Nc3ccc(F)cc3)nc21 [Compound 2] | 2.51e-05 | 94.2 | 1.32 | – | – | – | – | – | – | – | – | –
Cn1ncc2c(NCCO)nc(Nc3cccc(Cl)c3)nc21 [Compound 3] | 1.26e-05 | 94.7 | 1.82 | – | – | – | – | – | – | – | – | –
Cn1ncc2c(NCCO)nc(Nc3cccc(F)c3)nc21 [Compound 4] | 3.16e-05 | 83.7 | 1.48 | – | – | – | – | – | – | – | – | –
Cn1ncc2c(NCCO)nc(Nc3ccc(F)c(F)c3)nc21 [Compound 5] | 1.26e-05 | 98.7 | 1.64 | – | – | – | – | – | – | – | – | –
Cn1ncc2c(NCCO)nc(Nc3ccc(F)cc3F)nc21 [Compound 6] | 1.26e-05 | 102 | – | – | – | – | – | – | – | – | – | –
COc1ccc(Nc2nc(NCCO)c3cnn(C)c3n2)cc1Cl [Compound 7] | > 0.0001 | – | – | – | – | – | – | – | – | – | – | –
Cn1ncc2c(NCCO)nc(NC3CCCCC3)nc21 [Compound 8] | > 0.0001 | – | – | 11.1 | > 100 | 16.3 | 1.74 | – | – | – | – | –
Cn1ncc2c(NCCO)nc(NC3CCOCC3)nc21 [Compound 9] | > 0.0001 | – | – | 17.3 | > 100 | 15 | 0.04 | – | – | – | – | –
Cn1ncc2c(NCCO)nc(N3CCCCC3)nc21 [Compound 10] | > 0.0001 | – | – | 10.8 | > 100 | 13.6 | 1.49 | – | – | – | – | –
CC(C)Nc1nc(NCCO)c2cnn(C)c2n1 [Compound 11] | > 0.0001 | – | – | 5.3 | > 100 | 6.3 | 0.63 | – | – | – | – | –
CN(c1cccc(F)c1)c1nc(NCCO)c2cnn(C)c2n1 [Compound 12] | > 0.0001 | – | – | 10.2 | > 100 | 11.7 | 1.51 | – | – | – | – | –
COc1cc(Nc2nc(NCCO)c3cnn(C)c3n2)ccc1F [Compound 14] | > 0.0001 | – | – | 36.8 | > 100 | 4.9 | – | – | – | – | – | –
CC(C)Oc1cc(Nc2nc(NCCO)c3cnn(C)c3n2)ccc1F [Compound 15] | > 0.0001 | – | – | 6.9 | > 100 | 5.4 | – | – | – | – | – | –
CC(C)Cc1cc(Nc2nc(NCCO)c3cnn(C)c3n2)ccc1F [Compound 16] | > 0.0001 | – | – | 17.1 | > 100 | 15.4 | – | – | – | – | – | –
Cn1ncc2c(Nc3ccc(F)c(F)c3)nc(Nc3ccc(F)c(F)c3)nc21 [Compound 17] | > 0.0001 | – | – | – | > 100 | – | 3.82 | 0.38 (≈ 0.148 µg/mL) | – | – | – | –
CNc1nc(Nc2ccc(F)c(F)c2)nc2c1cnn2C [Compound 18] | 6.31e-06 | 98.7 | – | – | > 100 | – | 2.31 | 58 (≈ 16.8 µg/mL) | – | – | – | –
CN(CCO)c1nc(Nc2ccc(F)c(F)c2)nc2c1cnn2C [Compound 20] | 2.51e-06 | 69.9 | – | – | > 100 | – | 1.99 | 2.4 (≈ 0.802 µg/mL) | – | – | – | –
COCCNc1nc(Nc2ccc(F)c(F)c2)nc2c1cnn2C [Compound 21] | 6.31e-06 | 99.7 | – | – | > 100 | – | 2.49 | 23.3 (≈ 7.79 µg/mL) | – | – | – | –
Cn1ncc2c(NC3CCCCC3O)nc(Nc3ccc(F)c(F)c3)nc21 (stereo not shown) [Compound 22] | 3.98e-06 | 61 | – | – | > 100 | – | 2.5 | – | – | – | – | –
Cn1ncc2c(NC3CCOCC3)nc(Nc3ccc(F)c(F)c3)nc21 [Compound 23] | 7.94e-06 | 65.4 | – | – | > 100 | – | 2.45 | 0.59 (≈ 0.213 µg/mL) | – | – | – | –
Cn1ncc2c(N3CCCCC3)nc(Nc3ccc(F)c(F)c3)nc21 [Compound 24] | > 0.0001 | – | – | – | > 100 | – | 3.93 | 0.46 (≈ 0.158 µg/mL) | inactive | – | – | –
Cn1ncc2c(N3CCC[C@H]3CO)nc(Nc3ccc(F)c(F)c3)nc21 [Compound 25] | 7.94e-06 | 87.7 | – | – | > 100 | – | 2.43 | 6.1 (≈ 2.2 µg/mL) | – | – | – | –
CNC(=O)CNc1nc(Nc2ccc(F)c(F)c2)nc2c1cnn2C [Compound 26] | 2e-05 | 68.9 | – | – | > 100 | – | 1.38 | 201 (≈ 69.8 µg/mL) | – | – | – | –
Cc1noc(CNc2nc(Nc3ccc(F)c(F)c3)nc3c2cnn3C)n1 [Compound 28] | 6.31e-06 | 68.7 | – | – | > 100 | – | – | 0.72 (≈ 0.268 µg/mL) | – | – | – | –
COC(=O)[C@H](Nc1nc(Nc2ccc(F)c(F)c2)nc2c1cnn2C)C(C)C [Compound 29] | 7.94e-07 | 100 | – | – | 10 | – | 6.22 | 39.1 (≈ 15.3 µg/mL) | – | 51.5 | – | –
COC(=O)[C@@H](CO)Nc1nc(Nc2ccc(F)c(F)c2)nc2c1cnn2C [Compound 30] | 1.26e-06 | 102 | – | – | 39.8 | – | 3.78 | 29.8 (≈ 11.3 µg/mL) | – | 93.3 | – | –
COC(=O)C(Cc1c[nH]cn1)Nc1nc(Nc2ccc(F)c(F)c2)nc2c1cnn2C (stereo not shown) [Compound 31] | 2e-07 | 100 | – | – | 2 | – | 3.63 | 128 (≈ 54.8 µg/mL) | – | – | good solubility | full inhibition
COC(=O)C1(Nc2nc(Nc3ccc(F)c(F)c3)nc3c2cnn3C)CC1 [Compound 32] | 7.94e-07 | 94.7 | – | – | > 100 | – | 4.91 | – | – | – | – | –
